How the values were obtained:
[1] = refractive index (Na D-line) (dimensionless); xn = mol fraction of the nth substance listed; settings: 101 kPa, Liquid
[2] = xn = mol fraction of the nth substance listed; settings: 101 kPa, Liquid

OCCCl [1-chloro-2-hydroxyethane] + C1COCCO1
Settings | mass density, 298.15 K [kg/m3] | mass density, 303.15 K [kg/m3] | mass density, 308.15 K [kg/m3] | refractive index, 298.15 K | refractive index, 303.15 K | refractive index, 308.15 K | speed of sound, 298.15 K [m/s] | viscosity, 298.15 K [mPa·s] | viscosity, 303.15 K [mPa·s] | viscosity, 308.15 K [mPa·s]
[1], x2 = 0 | – | – | – | 1.4411 | 1.438 | 1.4326 | – | – | – | –
[1], x2 = 0.1024 | – | – | – | 1.4389 | 1.4356 | 1.4324 | – | – | – | –
[1], x2 = 0.2001 | – | – | – | 1.4363 | 1.4337 | 1.431 | – | – | – | –
[1], x2 = 0.3035 | – | – | – | 1.4337 | 1.4314 | 1.4292 | – | – | – | –
[1], x2 = 0.4041 | – | – | – | 1.4314 | 1.4291 | 1.4268 | – | – | – | –
[1], x2 = 0.5047 | – | – | – | 1.429 | 1.4269 | 1.4247 | – | – | – | –
[1], x2 = 0.6031 | – | – | – | 1.4273 | 1.4249 | 1.4225 | – | – | – | –
[1], x2 = 0.7015 | – | – | – | 1.4256 | 1.4231 | 1.4205 | – | – | – | –
[1], x2 = 0.8009 | – | – | – | 1.4235 | 1.4211 | 1.4187 | – | – | – | –
[1], x2 = 0.9003 | – | – | – | 1.4214 | 1.4191 | 1.4168 | – | – | – | –
[2], x2 = 0 | 1200.9 | 1192.5 | 1187.1 | – | – | – | 1358 | 3.104 | 2.669 | 2.347
[2], x2 = 0.1024 | 1177.7 | 1171.1 | 1165.1 | – | – | – | 1357 | 2.755 | 2.457 | 2.16
[2], x2 = 0.2001 | 1157 | 1151.1 | 1145.2 | – | – | – | 1356 | 2.431 | 2.17 | 1.909
[2], x2 = 0.3035 | 1136.7 | 1131.1 | 1125.5 | – | – | – | 1354 | 2.088 | 1.877 | 1.666
[2], x2 = 0.4041 | 1118.2 | 1112.7 | 1107.2 | – | – | – | 1353 | 1.858 | 1.682 | 1.505
[2], x2 = 0.5047 | 1100.8 | 1095.4 | 1090 | – | – | – | 1352 | 1.649 | 1.496 | 1.344
[2], x2 = 0.6031 | 1084.8 | 1079.4 | 1073.9 | – | – | – | 1350 | 1.505 | 1.376 | 1.248
[2], x2 = 0.7015 | 1069.5 | 1064.1 | 1058.7 | – | – | – | 1349 | 1.377 | 1.265 | 1.152
[2], x2 = 0.8009 | 1054.9 | 1049.5 | 1044.1 | – | – | – | 1347 | 1.304 | 1.199 | 1.095
[2], x2 = 0.9003 | 1041.6 | 1030.9 | 1030.2 | – | – | – | 1346 | 1.233 | 1.136 | 1.038

ClC=C(Cl)Cl [trichloroethene] + C1COCCO1
Settings | mass density, 298.15 K [kg/m3] | mass density, 303.15 K [kg/m3] | mass density, 308.15 K [kg/m3] | refractive index, 298.15 K | refractive index, 303.15 K | refractive index, 308.15 K | speed of sound, 298.15 K [m/s] | viscosity, 298.15 K [mPa·s] | viscosity, 303.15 K [mPa·s] | viscosity, 308.15 K [mPa·s]
[1], x2 = 0 | – | – | – | 1.476 | 1.4729 | 1.4698 | – | – | – | –
[1], x2 = 0.1006 | – | – | – | 1.4704 | 1.4673 | 1.4643 | – | – | – | –
[1], x2 = 0.201 | – | – | – | 1.4648 | 1.4618 | 1.4587 | – | – | – | –
[1], x2 = 0.2983 | – | – | – | 1.4592 | 1.4562 | 1.4532 | – | – | – | –
[1], x2 = 0.3995 | – | – | – | 1.4536 | 1.4507 | 1.4477 | – | – | – | –
[1], x2 = 0.507 | – | – | – | 1.4476 | 1.4446 | 1.4417 | – | – | – | –
[1], x2 = 0.5993 | – | – | – | 1.4426 | 1.4396 | 1.4366 | – | – | – | –
[1], x2 = 0.6969 | – | – | – | 1.4373 | 1.4344 | 1.4315 | – | – | – | –
[1], x2 = 0.802 | – | – | – | 1.4314 | 1.4285 | 1.4256 | – | – | – | –
[1], x2 = 0.9003 | – | – | – | 1.426 | 1.4231 | 1.4202 | – | – | – | –
[2], x2 = 0 | 1455.4 | 1447 | 1438.5 | – | – | – | 1027 | 0.573 | 0.547 | 0.521
[2], x2 = 0.1006 | 1412.7 | 1404.6 | 1396.4 | – | – | – | 1059 | 0.635 | 0.602 | 0.569
[2], x2 = 0.201 | 1370.1 | 1362.2 | 1354.2 | – | – | – | 1091 | 0.697 | 0.658 | 0.618
[2], x2 = 0.2983 | 1327.9 | 1320.3 | 1312.8 | – | – | – | 1122 | 0.758 | 0.712 | 0.665
[2], x2 = 0.3995 | 1284.4 | 1277.2 | 1270 | – | – | – | 1152 | 0.821 | 0.768 | 0.714
[2], x2 = 0.507 | 1238.6 | 1231.5 | 1224.5 | – | – | – | 1187 | 0.888 | 0.827 | 0.767
[2], x2 = 0.5993 | 1199.3 | 1192.5 | 1185.7 | – | – | – | 1215 | 0.945 | 0.878 | 0.812
[2], x2 = 0.6969 | 1158.5 | 1152.1 | 1145.6 | – | – | – | 1246 | 1.006 | 0.933 | 0.859
[2], x2 = 0.802 | 1114 | 1107.7 | 1101.5 | – | – | – | 1276 | 1.072 | 0.991 | 0.911
[2], x2 = 0.9003 | 1072.1 | 1066.2 | 1060 | – | – | – | 1307 | 1.133 | 1.046 | 0.959

C1COCCO1 [1,4-dioxane] + Clc1ccccc1Cl
x1 = 1
Settings | mass density, 298.15 K [kg/m3] | mass density, 303.15 K [kg/m3] | mass density, 308.15 K [kg/m3] | refractive index, 298.15 K | refractive index, 303.15 K | refractive index, 308.15 K | speed of sound, 298.15 K [m/s] | viscosity, 298.15 K [mPa·s] | viscosity, 303.15 K [mPa·s] | viscosity, 308.15 K [mPa·s]
[1] | – | – | – | 1.4203 | 1.4164 | 1.4145 | – | – | – | –
[2] | 1028.6 | 1022.9 | 1017.2 | – | – | – | 1345 | 1.196 | 1.102 | 1.008

CCOC(C)=O [ethyl acetate] + C1COCCO1
x2 = 0
Settings | mass density, 298.15 K [kg/m3] | mass density, 303.15 K [kg/m3] | mass density, 308.15 K [kg/m3] | refractive index, 298.15 K | refractive index, 303.15 K | refractive index, 308.15 K | speed of sound, 298.15 K [m/s] | viscosity, 298.15 K [mPa·s] | viscosity, 303.15 K [mPa·s] | viscosity, 308.15 K [mPa·s]
[1] | – | – | – | 1.3713 | 1.3673 | 1.3631 | – | – | – | –
[2] | 894.2 | 887.9 | 881.6 | – | – | – | 1155 | 0.438 | 0.414 | 0.392

Source: the NIST ThermoML archive (doi:10.1021/je049609w)
